Measurements taken from ChEMBL document CHEMBL1201862, “PubChem BioAssay data set” (2004).
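Assay format: 96-well plates, 48-hour exposure. GI50 marks 50% less growth.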 Activity calls are given as the source filed them. No stated cut-off is given here; in the data, active = GI50 up to about 1.1 µM and inactive = higher.

Columns and labels:
Test in all cases: NCI-60 cell line screen, 48 h
HCT-116 = test system: HCT-116
K562 = test system: K562
NCI-H460 = test system: NCI-H460
OVCAR-5 = test system: OVCAR-5
SF-295 = test system: SF-295
SF-539 = test system: SF-539
SK-MEL-2 = test system: SK-MEL-2
SK-MEL-5 = test system: SK-MEL-5
SK-OV-3 = test system: SK-OV-3
SNB-75 = test system: SNB-75
SW-620 = test system: SW-620
U-251 = test system: U-251
UO-31 = test system: UO-31
RPMI-8226 = test system: RPMI-8226
OVCAR-4 = test system: OVCAR-4

Measured: GI50

CCN(CC)CCNC(=O)c1cccc2cc3ccccc3nc12
inactive: HCT-116 3.52 µM | K562 3.72 µM | NCI-H460 2.88 µM | OVCAR-5 6.21 µM | SF-295 7.23 µM | SF-539 4.49 µM | SK-MEL-2 7.53 µM | SK-MEL-5 4.52 µM | SK-OV-3 8.93 µM | SNB-75 7.71 µM | SW-620 3.49 µM | U-251 5.01 µM | UO-31 3.45 µM

O=C(Nc1ccc([N+](=O)[O-])cc1)C1C(=O)C(=O)N(c2ccc([N+](=O)[O-])cc2)C1=O (stereo unspecified)
inactive: HCT-116 80.2 µM | K562 8.07 µM | NCI-H460 34.5 µM | OVCAR-5 > 100 µM | RPMI-8226 46.5 µM | SF-295 80.2 µM | SF-539 94.8 µM | SK-MEL-2 > 100 µM | SK-MEL-5 12 µM | SK-OV-3 > 100 µM | SNB-75 > 100 µM | SW-620 17.6 µM | U-251 > 100 µM | UO-31 78 µM

CCOC(=O)c1cc2c(nc1N)-c1ncccc1CC2
inactive: HCT-116 44.3 µM | K562 27 µM | NCI-H460 77.1 µM | OVCAR-4 > 100 µM | OVCAR-5 > 100 µM | RPMI-8226 22.6 µM | SF-295 54.5 µM | SF-539 > 100 µM | SK-MEL-2 > 100 µM | SK-MEL-5 38.9 µM | SK-OV-3 45.1 µM | SNB-75 > 100 µM | SW-620 59.8 µM | U-251 43.8 µM | UO-31 88.1 µM

O=C(c1cc2ccccc2o1)N(Cc1ccccc1)c1ccccc1
inactive: HCT-116 16.9 µM | K562 15 µM | NCI-H460 26.9 µM | OVCAR-5 30.3 µM | RPMI-8226 18.2 µM | SF-295 34.4 µM | SK-MEL-2 33.8 µM | SK-MEL-5 16.1 µM | SK-OV-3 33.2 µM | SNB-75 28.3 µM | SW-620 15.8 µM | UO-31 22.9 µM

C/C=C1\C=C(OC)CN(CCc2c[nH]c3ccccc23)C1
inactive: HCT-116 36.4 µM | K562 72.3 µM | NCI-H460 26 µM | OVCAR-4 39.5 µM | RPMI-8226 73.8 µM | SF-295 27.9 µM | SF-539 > 100 µM | SK-MEL-2 43.3 µM | SK-MEL-5 20.2 µM | SNB-75 38.9 µM | SW-620 70.3 µM | UO-31 75 µM

NC(=O)N/N=C(\Cc1nc2ccc(C(=O)c3ccccc3)cc2nc1O)C(=O)Nc1ccc(Br)cc1
inactive: HCT-116 > 100 µM | K562 > 100 µM | NCI-H460 > 100 µM | OVCAR-4 > 100 µM | OVCAR-5 > 100 µM | RPMI-8226 > 100 µM | SF-295 > 100 µM | SF-539 > 100 µM | SK-MEL-2 > 100 µM | SK-MEL-5 > 100 µM | SK-OV-3 > 100 µM | SNB-75 > 100 µM | SW-620 > 100 µM | U-251 > 100 µM | UO-31 > 100 µM

COC(=O)CCC(=O)Nc1cc(C)ccc1C
inactive: HCT-116 > 100 µM | K562 > 100 µM | NCI-H460 > 100 µM | OVCAR-4 > 100 µM | RPMI-8226 > 100 µM | SF-295 > 100 µM | SF-539 > 100 µM | SK-MEL-2 > 100 µM | SK-MEL-5 > 100 µM | SK-OV-3 > 100 µM | SNB-75 > 100 µM | SW-620 > 100 µM | U-251 > 100 µM | UO-31 > 100 µM

CCc1cccc(C)c1NC(=O)CCc1nnc(S)[nH]1
inactive: HCT-116 > 100 µM | K562 > 100 µM | NCI-H460 > 100 µM | OVCAR-4 > 100 µM | OVCAR-5 > 100 µM | RPMI-8226 > 100 µM | SF-295 > 100 µM | SF-539 > 100 µM | SK-MEL-2 > 100 µM | SK-MEL-5 > 100 µM | SK-OV-3 > 100 µM | SW-620 > 100 µM | U-251 > 100 µM | UO-31 > 100 µM

COc1cccc(NC(=S)Nn2c(C)nc3ccccc3c2=O)c1
inactive: HCT-116 > 100 µM | K562 > 100 µM | NCI-H460 > 100 µM | OVCAR-4 > 100 µM | OVCAR-5 > 100 µM | RPMI-8226 > 100 µM | SF-295 > 100 µM | SF-539 > 100 µM | SK-MEL-2 > 100 µM | SK-MEL-5 > 100 µM | SK-OV-3 > 100 µM | SNB-75 > 100 µM | SW-620 > 100 µM | U-251 > 100 µM | UO-31 > 100 µM

Cc1c(-c2coc(-c3ccccc3)n2)c(=O)n(-c2ccccc2)n1C
inactive: HCT-116 > 100 µM | NCI-H460 > 100 µM | OVCAR-4 > 100 µM | OVCAR-5 > 100 µM | RPMI-8226 36.5 µM | SF-295 > 100 µM | SF-539 > 100 µM | SK-MEL-2 > 100 µM | SK-MEL-5 25.2 µM | SK-OV-3 > 100 µM | SNB-75 > 100 µM | SW-620 37.8 µM | U-251 > 100 µM | UO-31 84.7 µM

CC(C)c1cccc(C(C)C)c1NC(=O)C(=O)C(C(=O)c1ccccc1-c1ccccc1)C1OC(=O)c2ccccc21 (stereo unspecified)
inactive: HCT-116 24.9 µM | K562 21.4 µM | NCI-H460 15 µM | OVCAR-4 16 µM | OVCAR-5 18.5 µM | RPMI-8226 32.6 µM | SF-295 16.6 µM | SF-539 12.6 µM | SK-MEL-2 14.9 µM | SK-MEL-5 15.5 µM | SW-620 19.9 µM | U-251 12.8 µM | UO-31 18.7 µM

CC(=O)CCCCCCCCCCCC[C@@H]1CC[C@H](C)[C@H](O)N1
inactive: HCT-116 > 100 µM | K562 > 100 µM | NCI-H460 > 100 µM | OVCAR-5 > 100 µM | RPMI-8226 > 100 µM | SF-295 > 100 µM | SK-MEL-2 > 100 µM | SK-MEL-5 46.9 µM | SK-OV-3 > 100 µM | SNB-75 89.1 µM | SW-620 > 100 µM | U-251 > 100 µM | UO-31 67.1 µM

CCCCNC1=C(C(=O)OCC)/C(=N/NC(=O)c2ccccc2O)CO1
inactive: HCT-116 6.68 µM | K562 13.2 µM | NCI-H460 33.3 µM | OVCAR-4 19.4 µM | OVCAR-5 59.7 µM | RPMI-8226 86.7 µM | SF-295 76.6 µM | SF-539 11.8 µM | SK-MEL-2 18.4 µM | SK-MEL-5 29.2 µM | SK-OV-3 > 100 µM | SNB-75 1.73 µM | SW-620 39 µM | U-251 20.1 µM | UO-31 4.54 µM

O=C(O)c1c[nH]cc1C(=O)O
inactive: HCT-116 > 100 µM | K562 > 100 µM | NCI-H460 > 100 µM | OVCAR-4 > 100 µM | OVCAR-5 > 100 µM | RPMI-8226 > 100 µM | SF-295 > 100 µM | SF-539 > 100 µM | SK-MEL-5 > 100 µM | SK-OV-3 > 100 µM | SNB-75 96.4 µM | SW-620 > 100 µM | U-251 > 100 µM | UO-31 > 100 µM

CCOC1CC2OC(=O)C1C=C2C(=O)OC (stereo unspecified)
inactive: K562 25.8 µM | NCI-H460 79.3 µM | OVCAR-4 23.1 µM | OVCAR-5 > 100 µM | RPMI-8226 14.7 µM | SF-295 > 100 µM | SF-539 24.8 µM | SK-MEL-2 31.4 µM | SK-MEL-5 36.4 µM | SK-OV-3 > 100 µM | SW-620 21.9 µM | U-251 50.1 µM | UO-31 35.7 µM

CN1CCCNCCN(CCc2ccccn2)CCCN(C)CC1
inactive: HCT-116 > 66.2 µM | K562 > 44.9 µM | NCI-H460 > 67.3 µM | OVCAR-4 > 58.5 µM | OVCAR-5 > 100 µM | RPMI-8226 > 52.8 µM | SF-295 > 100 µM | SF-539 > 100 µM | SK-MEL-2 > 100 µM | SK-MEL-5 > 100 µM | SK-OV-3 > 100 µM | SNB-75 > 100 µM | SW-620 > 33.8 µM | U-251 > 94.6 µM | UO-31 > 100 µM

CCN(CC)C(=O)C(C)n1cc(C)c(=O)[nH]c1=O (stereo unspecified)
inactive: HCT-116 > 100 µM | K562 > 100 µM | NCI-H460 > 100 µM | OVCAR-4 > 100 µM | OVCAR-5 > 100 µM | RPMI-8226 > 100 µM | SF-295 > 100 µM | SF-539 > 100 µM | SK-MEL-2 > 100 µM | SK-MEL-5 > 100 µM | SNB-75 15.1 µM | SW-620 > 100 µM | U-251 > 100 µM | UO-31 > 100 µM

OCc1ccc2[n+](c1)CCC1c3ccccc3NC21 (stereo unspecified)
inactive: HCT-116 > 300 µM | K562 > 300 µM | NCI-H460 > 300 µM | RPMI-8226 > 300 µM | SF-295 > 300 µM | SF-539 > 300 µM | SK-MEL-2 > 300 µM | SK-MEL-5 86.9 µM | SK-OV-3 > 300 µM | SW-620 > 300 µM | U-251 > 300 µM

CC1CC(=O)CC[C@@H]1OCc1ccccc1 (stereo partly specified)
inactive: HCT-116 81.3 µM | K562 58.1 µM | NCI-H460 > 100 µM | OVCAR-4 > 100 µM | OVCAR-5 > 100 µM | RPMI-8226 47 µM | SF-295 > 100 µM | SF-539 > 100 µM | SK-MEL-2 > 100 µM | SK-MEL-5 > 100 µM | SK-OV-3 > 100 µM | SNB-75 > 100 µM | SW-620 > 100 µM | U-251 > 100 µM | UO-31 > 100 µM

Cc1cc2c(=O)n(-c3ccc(F)cc3)c(C)nc2c(C(=O)O)c1C
inactive: HCT-116 > 100 µM | K562 > 100 µM | NCI-H460 > 100 µM | OVCAR-4 > 100 µM | OVCAR-5 > 100 µM | RPMI-8226 > 100 µM | SF-295 > 100 µM | SF-539 > 100 µM | SK-MEL-2 > 100 µM | SK-MEL-5 > 100 µM | SK-OV-3 > 100 µM | SNB-75 > 100 µM | SW-620 > 100 µM | U-251 > 100 µM | UO-31 > 100 µM
